Test results reported in patent US11033029B2, “Pyrazole amide compound and use thereof” (Shenyang Sinochem Agrochemicals R&D Co., Ltd., priority 2013, dated 2021).

What was measured:
[1] = test system: corn rust (Puccinia sorghi Schw); assay: Protective effect against corn rust on potted plants; assay type: in vivo; details: protectant activity, parallel test
Method: (§1) Fungicidal activity of the compounds in the present invention against many kinds diseases were carried out. The procedure of fungicidal activity determination is as follows:
(§2) The fungicidal activity was tested in vivo manner on the potted plants. The test compounds of the present invention were dissolved in proper solvent (choosing the solvent according their dissolving ability to the compounds, the solvents could be acetone, methanol or N,N-dimethylformide, etc. The volume ratio between solvent and liquid sprayed was equal to or less than 0.05) and dilute with water contain 0.1% Tween 80 to given concentrations. Compounds of present invention was sprayed onto the leaves of seedling according to the designed concentration. Meanwhile, water was set as the blank control, three replicates were set for each treatment, the spore suspension were inoculated on the second day after treatment, then the plants were placed in an artificial climate chamber (temperature: day 25° C., night 20° C., relative humidity 95 to 100%). 24 hours later, the plants were moved to green house to cultivated. The plants which not need to control humidity was inoculated spore suspension in green house and cultivated in green house directly. The results were investigated after the plants were fully infected relative to the blank control (usually one week). The test results grading 100-0 refers to the <A Manual of Assessment Keys for Plant Diseases> which edited by American Phytopathological Society. “100” refer to no infection and “0” refer to the most serious infection
Protective effect against corn rust (Puccinia sorghi Schw):
According the test method described above, parallel test were carried out between compounds 1, 3, 7, 9, 11 and 21 of present invention and the known compounds KC1, KC2, KC3 and KC4.

[2] = test system: cucumber downy mildew (Pseudoperonospora cubensis (Berk.et Curt.) Rostov); assay: Protective effect against cucumber downy mildew on potted plants; assay type: in vivo; details: 400 ppm, protectant activity, parallel test
Method: as §1, §2
Protective effect against cucumber downy mildew (Pseudoperonospora cubensis (Berk.et Curt.) Rostov)
According the test method described above, parallel test were carried out between compounds 2 and 11 of present invention and the known compounds KC1, KC2, KC3 and KC4 (they are the compounds 7g, 7f and 7a in Chinese Journal of Pesticide Science, 2011, 13(6): 576-580 and compound of 11 in CN1646494A, respectively).

SMILES | pest or weed control at 6.25 ppm [1] [%] | pest or weed control at 25 ppm [1] [%] | Control effect against cucumber downy mildew (%) [2] [%]
CCCC(C)Oc1cccc(NC(=O)c2cn(C)nc2C(F)F)c1 (stereo not drawn) [Compound 3] | 95 | 100 | 
CC(C)Oc1cccc(NC(=O)c2cn(C)nc2C(F)F)c1 [Compound 1] | 100 | 100 | 
C=C(C)Cc1c(NC(=O)c2cn(C)nc2C(F)F)cccc1OC(C)C [Compound 21] | 90 | 100 | 
Cn1cc(C(=O)Nc2ccc(F)cc2-c2ccc(Cl)c(Cl)c2)c(C(F)F)n1 [KC4, bixafen] | 0 | 50 | 0
Cc1c(F)cccc1NC(=O)c1cn(C)nc1C(F)F [KC3] | 20 | 30 | 0
Cn1cc(C(=O)Nc2ccccc2)c(C(F)F)n1 [KC1] | 0 | 60 | 0
Cc1ccccc1NC(=O)c1cn(C)nc1C(F)F [KC2] | 0 | 0 | 0
CCC(CC)Oc1cccc(NC(=O)c2cn(C)nc2C(F)F)c1C [Compound 11] | 90 | 100 | 90
